# Source: paper PMC5099944, “Design, synthesis and biological evaluation of hybrids of β-carboline and salicylic acid as potential anticancer and apoptosis inducing agents” (Scientific Reports, 2016)
# “Also recorded” adds a separate entry of the source. Where two headings read alike, the source gives them in different places.
# What was measured:
# [1] = tested on: SMMC-7721 cells; assay: MTT assay, proliferation of SMMC-7721 cells; assay type: cell-based, human
# Procedure: (§1) The in vitro antitumor activities of the synthesized compounds 7a-l and 8a-l against five human cancer cells were evaluated in MTT assays using 5-fluorouracil (5-FU) and harmine as positive controls. These cells are human hepatocellular carcinoma cells (SMMC-7721 and Hep G2), human colon cancer cell lines (HCT116), human bladder carcinoma cells (EJ), and human lung cancer cells (H460).
# (§2) Hepatocellular carcinoma cells (SMMC-7721 and Hep G2), Human colon cancer cell lines (HCT116), human bladder carcinoma cells (EJ) or human lung cancer cells (H460) at 10^4 cells per well were cultured in 10% FBS DMEM in 96-well flat-bottom microplates overnight. The cells were incubated in triplicate with, or without, different concentrations of each test compound for 48 h. During the last 4 h incubation, 30 μL of tetrazolium dye (MTT) solution (5 mg mL^−1) was added to each well. The resulting MTT-formazan crystals were dissolved in 150 μL DMSO, and absorbance was measured spectrophotometrically at 570 nm using an ELISA plate reader. The inhibition induced by each test compound at the indicated concentrations was expressed as a percentage. The concentration required for 50% inhibition (IC50) was calculated using the software (GraphPadPrism Version 4.03).
# [2] = tested on: Hep G2 cells; assay: MTT assay, proliferation of Hep G2 cells; assay type: cell-based; conditions: Homo sapiens, HepG2, 48 h, read-out: In vitro cytotoxicity (IC50) Hep G2
# Procedure: as §1, §2
# [3] = tested on: HCT116 cells; assay: MTT assay, proliferation of HCT116 cells; assay type: cell-based; conditions: Homo sapiens, HCT-116, 48 h, read-out: In vitro cytotoxicity (IC50) HCT116
# Procedure: as §1, §2
# [4] = tested on: SMMC-7721 cells; assay: Flow cytometry assay of cell apoptosis (FITC-Annexin V/PI); assay type: cell-based, human; conditions: 14 μM, 48 h
# Procedure: To determine whether apoptosis is involved in the anti-proliferative effects of 8h, apoptosis assay was performed using SMMC-7721 cells. The cells were incubated with either vehicle alone, different concentrations of 8h (7.0 or 14 μM), or 14 μM 5-FU for 48 h, and then stained with FITC-Annexin V and propidium iodide (PI). The percentages of apoptotic SMMC-7721 cells were determined by flow cytometry analysis. In the vehicle group, the occurrence of SMMC-7721 cell apoptosis was minimal. […] Low concentration of 8h (7.0 μM) induced 46% SMMC-7721 cell apoptosis, while the higher dose (14 μM) of 8h induced 63% SMMC-7721 cell apoptosis.
# Figure 4 Compound 8h induced SMMC-7721 cell apoptosis in vitro. SMMC-7721 cells were incubated with the indicated concentrations of 8h and 14 μM 5-FU for 48 h, and the cells were stained with FITC-Annexin V and PI, followed by flow cytometry analysis. (A) Flow cytometry analysis. (B) Quantitative analysis of apoptotic cells. Data are expressed as means ± SD of the percentages of apoptotic cells from three independent experiments. *P < 0.01 vs control.
# SMMC-7721 cells were cultured overnight and incubated in triplicate with compound 8h (7.0 and 14 μM), 5-FU (14 μM), or vehicle for 48 h. The cells were harvested, and stained with FITC-Annexin V and PI (BioVision) at room temperature for 15 min. The percentage of apoptotic cells was determined by flow cytometry (Beckman Coulter) analysis.
# [5] = tested on: human cancer cells (SMMC-7721, Hep G2, HCT116, EJ, H460); assay: MTT assay, summary statements across several human cancer cell lines; assay type: cell-based; conditions: Homo sapiens, MTT
# Procedure: as §1, §2
# [6] = tested on: LO2 cells; assay: MTT assay, proliferation of normal liver LO2 cells; assay type: cell-based, human; conditions: 25 μM, 48 h, MTT assay
# Procedure: Given the strong growth inhibitory activity of 8h in vitro, it was profiled for antitumor selectivity by examining its inhibitory effects on the growth of SMMC-7721 cells and LO2 cells (human hepatocellular normal cells).
# Figure 3 (A) Inhibitory effects of 8h on the proliferation of SMMC-7721 and LO2 cells. Cells were incubated with the indicated concentrations of 8h for 48 h. Cell proliferation was assessed using the MTT assay. Data are means ± SD of the inhibition (%) from three independent experiments. (B) Inhibitory effects of 5h, 8h, and SA or the vehicle control against SMMC-7721 and LO2 cells. SMMC-7721 and LO2 cells were incubated with the indicated compounds at 25 μM for 48 h, and cell proliferation was assessed by the MTT assay. Data are means ± SD of the inhibition (%) from three independent experiments. *P < 0.01 versus control of SMMC-7721, ^#P < 0.01 inhibitory effects of 8h in SMMC-7721 versus LO2 cells.
# as §2
# [7] = tested on: EJ cells; assay: MTT assay, proliferation of EJ cells; assay type: cell-based; conditions: 48 h, EJ human bladder carcinoma cells, read-out: In vitro cytotoxicity (IC50) EJ
# Procedure: as §1, §2
# [8] = tested on: H460 cells; assay: MTT assay, proliferation of H460 cells; assay type: cell-based; conditions: NCI-H460, 48 h, H460 human lung cancer cells, read-out: In vitro cytotoxicity (IC50) H460
# Procedure: as §1, §2
# [9] = Homo sapiens, SMMC-7721, 48 h, read-out: In vitro cytotoxicity (IC50) SMMC-7721, MTT assay, 48 h, SMMC-7721 human hepatocellular carcinoma cells
# [10] = cancer cell lines tested (SMMC-7721, Hep G2, HCT116), read-out: Antitumor activities (IC50) of capped analogs
SMILES,"IC50 [1, 9]",IC50 [2],IC50 [3],SMMC-7721 cell apoptosis (percentage of apoptotic cells) [4],"IC50 ([5]; SMMC-7721, Hep G2, HCT116, read-out: IC50 values for liver and colon cancer cells growth (range over cell lines))","inhibition at 25 µM ([1]; Homo sapiens, SMMC-7721, 25 μM, 48 h, MTT assay, read-out: Inhibition of SMMC-7721 cell proliferation)",Inhibitory effect on LO2 cells [6],IC50 [7],IC50 [8],"IC50 ([1]; human, 48 h)","IC50 [5, 10]"
"O=c1[nH]cc(F)c(=O)[nH]1 [5-FU, 5-fluorouracil, reference compound]",28.7 µM,35.2 µM,19.6 µM,22%,19.6 to 35.2 µM,–,–,–,–,–,–
"Cc1nc(C(=O)NCCCCCN)cc2c1[nH]c1ccccc12 [5h, N-(5-Aminopentyl)-1-methyl-9H-pyrido[3,4-b]indole-3-carboxamide]",27.2 ± 3.4 µM,–,–,–,–,~42%,a similar effect was seen in the non-tumor LO2 cells; also recorded: high toxicities,–,–,–,–
"COc1ccc(-c2nc(C(=O)NCCCCCNC(=O)c3ccccc3C)cc3c2[nH]c2ccccc23)cc1 [7i, 1-(4-Methoxyphenyl)-N-(5-(2-methylbenzamido)pentyl)-9H-pyrido[3,4-b]indole-3-carboxamide]",38.2 µM,> 50 µM,45.2 µM,–,–,–,–,> 50 µM,27.5 µM,–,–
"Cc1ccccc1C(=O)NCCCCCCNC(=O)c1cc2c(cn1)[nH]c1ccccc12 [7j, N-(6-(2-Methylbenzamido)hexyl)-9H-pyrido[3,4-b]indole-3-carboxamide]",23.3 µM,28 µM,26.6 µM,–,–,–,–,18.2 µM,15.3 µM,–,–
"Cc1ccccc1C(=O)NCCCCCCNC(=O)c1cc2c([nH]c3ccccc32)c(C)n1 [7k, 1-Methyl-N-(6-(2-methylbenzamido)hexyl)-9H-pyrido[3,4-b]indole-3-carboxamide]",11.3 µM,16.9 µM,15.3 µM,–,–,–,–,13.7 µM,14.3 µM,–,–
"O=C(NCCCNC(=O)c1ccccc1O)c1cc2c(cn1)[nH]c1ccccc12 [8a, N-(3-(2-Hydroxybenzamido)propyl)-9H-pyrido[3,4-b]indole-3-carboxamide]",22.6 µM,18.9 µM,20.1 µM,–,–,–,–,15.9 µM,25.5 µM,–,–
"COc1ccc(-c2nc(C(=O)NCCCNC(=O)c3ccccc3O)cc3c2[nH]c2ccccc23)cc1 [8c, N-(3-(2-Hydroxybenzamido)propyl)-1-(4-methoxyphenyl)-9H-pyrido[3,4-b]indole-3-carboxamide]",36 µM,45.8 µM,33.2 µM,–,–,–,–,38.6 µM,> 50 µM,–,–
"O=C(NCCCCNC(=O)c1ccccc1O)c1cc2c(cn1)[nH]c1ccccc12 [8d, N-(4-(2-Hydroxybenzamido)butyl)-9H-pyrido[3,4-b]indole-3-carboxamide]",13 µM,11.7 µM,15.9 µM,–,–,–,–,12.1 µM,15.2 µM,–,–
"Cc1nc(C(=O)NCCCCNC(=O)c2ccccc2O)cc2c1[nH]c1ccccc12 [8e, N-(4-(2-Hydroxybenzamido)butyl)−1-methyl-9H-pyrido[3,4-b]indole-3-carboxamide]",7.93 µM,9.26 µM,9.36 µM,–,–,–,–,9.01 µM,11.9 µM,–,–
"COc1ccc(-c2nc(C(=O)NCCCCNC(=O)c3ccccc3O)cc3c2[nH]c2ccccc23)cc1 [8f, N-(4-(2-Hydroxybenzamido)butyl)-1-(4-methoxyphenyl)-9H-pyrido[3,4-b]indole-3-carboxamide]",20.1 µM,17.7 µM,18.2 µM,–,–,–,–,15 µM,22.8 µM,–,–
"O=C(NCCCCCNC(=O)c1ccccc1O)c1cc2c(cn1)[nH]c1ccccc12 [8g, N-(5-(2-Hydroxybenzamido)pentyl)-9H-pyrido[3,4-b]indole-3-carboxamide]",10.7 µM,9.12 µM,9.18 µM,–,–,–,–,8.71 µM,12.5 µM,–,–
"COc1ccc(-c2nc(C(=O)NCCCCCNC(=O)c3ccccc3O)cc3c2[nH]c2ccccc23)cc1 [8i, N-(5-(2-Hydroxybenzamido)pentyl)-1-(4-methoxyphenyl)-9H-pyrido[3,4-b]indole-3-carboxamide]",46.8 µM,30.8 µM,> 50 µM,–,–,–,–,> 50 µM,38.5 µM,–,–
"O=C(NCCCCCCNC(=O)c1ccccc1O)c1cc2c(cn1)[nH]c1ccccc12 [8j, N-(6-(2-Hydroxybenzamido)hexyl)-9H-pyrido[3,4-b]indole-3-carboxamide]",13.4 µM,17.2 µM,18.6 µM,–,–,–,–,16.5 µM,21.5 µM,–,–
"Cc1nc(C(=O)NCCCCCCNC(=O)c2ccccc2O)cc2c1[nH]c1ccccc12 [8k, N-(6-(2-Hydroxybenzamido)hexyl)-1-methyl-9H-pyrido[3,4-b]indole-3-carboxamide]",10.1 µM,13.6 µM,10.7 µM,–,–,–,–,13.2 µM,11.4 µM,–,–
"CC(=O)NCCCCCNC(=O)c1cc2c([nH]c3ccccc32)c(C)n1 [10a, N-(5-acetamidopentyl)-1-methyl-9H-pyrido[3,4-b]indole-3-carboxamide]",58.6 ± 6.7 µM,> 50 µM,> 50 µM,–,–,–,–,–,–,> 50 µM,> 50 µM
"Cc1nc(C(=O)NCCCCCNC(=O)c2ccccc2)cc2c1[nH]c1ccccc12 [10b, N-(5-benzamidopentyl)-1-methyl-9H-pyrido[3,4-b]indole-3-carboxamide]",> 100 µM,> 50 µM,> 50 µM,–,–,–,–,–,–,> 50 µM,> 50 µM
